From patent US20160024083A1, “COMPOUNDS AND METHODS FOR TREATING CANCERS” (HEALTH RESEARCH, INC., priority 2013, published 2016)
Where two headings read alike, the source gives them in different places.

Tests used:
Assay type in all cases: cell-based
Hela = experiment: Inhibition of growth / toxicity in non-target Hela cells
Protocol: (§1) This example provides a table (below) of the compounds of the present disclosure and their activity towards four different cell lines (i.e., CWR22R, HeLa, PC3, and MDA-MB-231). The IC50 for inhibition of growth is divided into 4 categories: A<1 μM, B 1-5 μM, C 5-20 μM, D>20 μM.
(§2) All compounds were tested for toxicity using 4 cells lines, target cells—CWR22R and non-target cells, Hela, PC3 and MDA-MB-231 (FIGS. 1A-F).

PC3 = experiment: Inhibition of growth / toxicity in non-target PC3 cells; details: Homo sapiens, PC-3
Protocol: as §1, §2

MDA-MB-231 = experiment: Inhibition of growth / toxicity in non-target MDA-MB-231 cells
Protocol: as §1, §2

CWR22R = experiment: cells
Protocol: FIG. 21. Toxicity of PLA1055 to CWR22R cells in vitro depending on time of incubation. PLA1055 was added to CWR22R in full range of concentrations for the periods of time shown on the right. After that drug containing media were changed for drug free and survival of cells was detected at 72 hours after start of treatment using Alamar Blue assay (Promega).
as §1, §2
LC50 data of in vitro 72 hours cytotoxicity assay are included in this table for comparison.
An in vitro experiment was run to detect the concentration of PLA1055 needed to kill all tumor cells in vitro (LC90) during different periods of time (30 minutes-72 hours, FIG. 21)).

[1] = Homo sapiens, 22Rv1, CWR22R, read-out: IC50 for inhibition of growth
[2] = CWR22R, read-out: IC50 for inhibition of growth

Row | Structure (SMILES) | IC50 (Hela; Homo sapiens, HeLa) [µM] | IC50 (PC3) [µM] | IC50 (MDA-MB-231; Homo sapiens) [µM] | IC50 (CWR22R; [1]) [µM] | IC50 (CWR22R; Homo sapiens, 22Rv1, read-out: IC50 for inhibition of growth, CWR22R) [µM] | IC50 (Hela; Hela) [µM] | IC50 (MDA-MB-231) [µM] | IC50 (CWR22R; [2]) [µM]
1 | CC(=O)c1ccc2c(c1)c1ccccc1n2CCC(F)F [Compound 18-2, 1-[9-(3,3-Difluoropropyl)-9H-carbazol-3-yl]-ethanone] | > 20 | > 20 | > 20 | < 1 |  |  |  | 
2 | FCCCn1c2ccccc2c2cc(-c3cnco3)ccc21 [Compound 11-1, 9-(3-Fluoropropyl)-3-oxazol-5-yl-9H-carbazole] | > 20 | > 20 | > 20 | < 1 |  |  |  | 
3 | CCCn1c2ccccc2c2cc(-c3cnoc3)ccc21 [Compound 2-5] | > 20 | > 20 | > 20 | < 1 |  |  |  | 
4 | CCCn1c2ccc(C(C)=O)cc2c2c(F)cccc21 [Compound 5-1, 1-(5-Fluoro-9-propyl-9H-carbazol-3-yl)-ethanone] | > 20 | > 20 | > 20 | < 1 |  |  |  | 
5 | NC(=O)c1cnc2c(c1)c1ccccc1n2CCCF [Compound 7-1, 9-(3-Fluoropropyl)-9H-pyrido[2,3-b]indole-3-carboxamide] | > 20 | > 20 | > 20 | 1 to 5 |  |  |  | 
6 | CCCn1c2ccccc2c2cc(-c3nccs3)ccc21 [Compound 4-2] | > 20 | > 20 | > 20 | > 20 |  |  |  | 
7 | CCCn1c2ccccc2c2cc(-c3cocn3)ccc21 [Compound 12-1, 3-Oxazol-4-yl-9-propyl-9H-carbazole] | > 20 | > 20 | > 20 | > 20 |  |  |  | 
8 | CCCn1c2ccccc2c2cc(C(C)=O)cnc21 [Compound 5-10] | > 20 | > 20 | > 20 | < 1 |  |  |  | 
9 | CCn1c2ccccc2c2cc(-c3ccccn3)ccc21 [Compound 4-4] | > 20 | > 20 | > 20 | 5 to 20 |  |  |  | 
10 | CCCn1c2ccccc2c2cc(C3=NCCO3)ccc21 [Compound 15-2] | > 20 | > 20 | > 20 | > 20 |  |  |  | 
11 | CCCn1c2ccccc2c2cc(Br)ccc21 [Compound 1-1, 3-Bromo-9-propyl-9H-carbazole] | > 20 | > 20 | > 20 |  | 1 to 5 |  |  | 
12 | CCCn1c2ccccc2c2cc(-c3nncs3)ccc21 [Compound 8-3] | > 20 | > 20 | > 20 | > 20 |  |  |  | 
13 | FCCCn1c2ccc(-c3nnco3)cc2c2ncccc21 [Compound 10-2] |  |  |  |  |  | > 20 | > 20 | 5 to 20
14 | CCCn1c2ccccc2c2cc(C#N)ccc21 [Compound 22-2] | > 20 | > 20 | > 20 | < 1 |  |  |  | 
15 | N#Cc1ccc2c(c1)c1ccccc1n2CCCF [Compound 26-1, 9-(3-Fluoropropyl)-9H-carbazole-3-carbonitrile] | > 20 | > 20 | > 20 | < 1 |  |  |  | 
16 | FCCCn1c2ccc(-c3nnco3)cc2c2ncccc21 [Compound 10-1, 5-(3-Fluoropropyl)-8-[1,3,4]oxadiazol-2-yl-5H-pyrido[3,2-b]indole] | > 20 |  | > 20 |  |  |  |  | > 20
17 | CCCn1c2ccc(C(C)=O)cc2c2c(OC)cccc21 [Compound 6-1, 1-(5-Methoxy-9-propyl-9H-carbazol-3-yl)-ethanone] | > 20 | > 20 | > 20 | < 1 |  |  |  | 
18 | FCCCn1c2ccccc2c2cc(-c3ccno3)ccc21 [Compound 13-2] | > 20 | > 20 | > 20 | < 1 |  |  |  | 
19 | CC(=O)c1ccc2c(c1)c1ccccc1n2CCCF [Compound 1-2] | > 20 | > 20 | > 20 | < 1 |  |  |  | 
20 | N#Cc1cnc2c(c1)c1ccccc1n2CCCF [Compound 25-3] | > 20 | > 20 | > 20 | 1 to 5 |  |  |  | 
21 | FCCCn1c2ccccc2c2cc(-c3nnco3)cnc21 [Compound 8-4] | > 20 | > 20 | > 20 | < 1 |  |  |  | 
22 | CCCn1c2ccc(C(C)=O)cc2c2ncccc21 [Compound 5-13] | > 20 | > 20 | > 20 | 1 to 5 |  |  |  | 

Row | Structure (SMILES) | IC50 (Hela; Homo sapiens, HeLa) [µM] | IC50 (PC3) [µM] | IC50 (MDA-MB-231; Homo sapiens) [µM] | IC50 (CWR22R; [1]) [µM] | IC50 (CWR22R; Homo sapiens, 22Rv1, read-out: IC50 for inhibition of growth, CWR22R) [µM] | IC50 (Hela; Hela) [µM] | IC50 (MDA-MB-231) [µM] | IC50 (CWR22R; [2]) [µM]
23 | CCCn1c2ccccc2c2cc(-c3cccs3)ccc21 [Compound 2-1, 9-Propyl-3-thiophen-2-yl-9H-carbazole] | > 20 | > 20 | > 20 | < 1 |  |  |  | 
24 | CC(=O)c1ccc2c(c1)c1c(C(N)=O)cccc1n2CCCF [Compound 5-8] | > 20 | > 20 | > 20 | < 1 |  |  |  | 
25 | FCCCn1c2ccccc2c2cc(-c3nnco3)ccc21 [Compound 9-1, 9-(3-Fluoropropyl)-3-[1,3,4]oxadiazol-2-yl-carbazole] | > 20 | > 20 | > 20 | < 1 |  |  |  | 
26 | CCOC(=O)c1cnc2c(c1)c1ccccc1n2CCCF [Compound 5-11, 9-(3-fluoropropyl)-9H-pyrido[2,3-b]indole-3-carboxylic acid ethyl ester] | > 20 | > 20 | > 20 | 1 to 5 |  |  |  | 
27 | CCCn1c2ccc(C(C)=O)cc2c2ccc(F)cc21 [Compound 5-2] | > 20 | > 20 | > 20 | 5 to 20 |  |  |  | 
28 | CCCn1c2ccc(C(C)=O)cc2c2cc(C(N)=O)ccc21 [Compound 23-1, 6-Acetyl-9-propyl-9H-carbazole-3-carboxylic acid amide] | > 20 | > 20 | 5 to 20 | 5 to 20 |  |  |  | 
29 | CCCn1c2ccc(OC)cc2c2cc(C(C)=O)ccc21 [Compound 21-1, 1-(6-Methoxy-9-propyl-9H-carbazol-3-yl)-ethanone] | > 20 | > 20 | > 20 | 5 to 20 |  |  |  | 
30 | CCCn1c2ccccc2c2cc(-c3cnco3)ccc21 [Compound 11-2] | > 20 | > 20 | > 20 | < 1 |  |  |  | 
31 | CCCn1c2ccccc2c2cc(-c3nnco3)ccc21 [Compound 8-1, 3-[1,3,4]Oxadiazol-2-yl-9-propyl-9H-carbazole] | > 20 | > 20 | > 20 | < 1 |  |  |  | 
32 | CCCn1c2ccccc2c2cc(-c3ccccn3)ccc21 [Compound 4-5] | > 20 | > 20 | > 20 | 1 to 5 |  |  |  | 
33 | CCCn1c2ccccc2c2cc(-c3ccc(C)s3)ccc21 [Compound 2-2] | > 20 | > 20 | > 20 | > 20 |  |  |  | 
34 | CCn1c2ccccc2c2cc(-c3cccs3)ccc21 [Compound 2-6] | > 20 |  | > 20 | 1 to 5 |  |  |  | 
35 | CCCn1c2ccc(Cl)cc2c2cc(C(C)=O)ccc21 [Compound 20-2] | > 20 | > 20 | > 20 | > 20 |  |  |  | 
36 | CCCn1c2ccccc2c2cc(-c3ccno3)ccc21 [Compound 13-1, 3-Isoxazol-5-yl-9-propyl-9H-carbazole] | > 20 | > 20 | > 20 | 1 to 5 |  |  |  | 
37 | FCCCn1c2ccccc2c2cc(-n3cncn3)ccc21 [Compound 14-1, 9-(3-Fluoropropyl)-3-[1,2,4]triazol-1-yl-9H-carbazole] | > 20 | > 20 | > 20 | < 1 |  |  |  | 
38 | CCCn1c2ccc(Br)cc2c2cc(C(C)=O)ccc21 [Compound 20-1, 1-(6-Bromo-9-propyl-9H-carbazol-3-yl)-ethanone] | > 20 | > 20 | > 20 | 5 to 20 |  |  |  | 
39 | CCCn1c2ccc(C(C)=O)cc2c2c(O)cccc21 [Compound 27-1, 1-(5-Hydroxy-9-propyl-9H-carbazol-3-yl)-ethanone] | > 20 | > 20 | > 20 | > 20 |  |  |  | 
40 | CCCn1c2ccccc2c2cc(-c3ncco3)ccc21 [Compound 4-1, 3-Oxazol-2-yl-9-propyl-9H-carbazole] | > 20 | > 20 | > 20 | 1 to 5 |  |  |  | 
41 | CCCn1c2ccc(C(C)=O)cc2c2c(C(N)=O)cccc21 [Compound 19-1, 6-Acetyl-9-propyl-9H-carbazole-4-carboxamide] | > 20 | > 20 | > 20 | 1 to 5 |  |  |  | 
42 | CCCn1c2ccc(C(C)=O)cc2c2c(C#N)cccc21 [Compound 25-1, 6-Acetyl-9-propyl-9H-carbazole-4-carbonitrile] | > 20 | > 20 | > 20 | 1 to 5 |  |  |  | 
43 | CCCn1c2ccccc2c2cc(C(C)=O)ncc21 [Compound 17-3] | > 20 | > 20 | > 20 | 5 to 20 |  |  |  | 
44 | CNC(=O)c1cccc2c1c1cc(C(C)=O)ccc1n2CCCF [Compound 6-4] | > 20 | > 20 | > 20 | 5 to 20 |  |  |  | 
